Results from ChEMBL document CHEMBL1909046, “DrugMatrix in vitro pharmacology data”.

What was measured:
Leukotriene C4 synthase = target: T1, Leukotriene C4 synthase (Cavia porcellus, UniProt A6XA80); type: tissue-based, Lung;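 also: enzyme inhibition assay of leukotriene C4 synthase, using LTA4 as the substrate; in other assays of this panel Not Active means under 50% inhibition at 10 µM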
T1 sequence (A6XA80 whole entry): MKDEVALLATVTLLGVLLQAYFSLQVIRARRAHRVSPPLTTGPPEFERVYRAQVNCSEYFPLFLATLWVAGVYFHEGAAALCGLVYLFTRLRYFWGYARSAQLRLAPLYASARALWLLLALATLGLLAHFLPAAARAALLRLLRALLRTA

[1] = target: Voltage-gated inwardly rectifying potassium channel KCNH2 (Homo sapiens, UniProt Q12809); settings: hek293; also: in other assays of this panel Not Active means under 50% inhibition at 10 µM
Sequence of Voltage-gated inwardly rectifying potassium channel KCNH2 (Q12809 whole entry): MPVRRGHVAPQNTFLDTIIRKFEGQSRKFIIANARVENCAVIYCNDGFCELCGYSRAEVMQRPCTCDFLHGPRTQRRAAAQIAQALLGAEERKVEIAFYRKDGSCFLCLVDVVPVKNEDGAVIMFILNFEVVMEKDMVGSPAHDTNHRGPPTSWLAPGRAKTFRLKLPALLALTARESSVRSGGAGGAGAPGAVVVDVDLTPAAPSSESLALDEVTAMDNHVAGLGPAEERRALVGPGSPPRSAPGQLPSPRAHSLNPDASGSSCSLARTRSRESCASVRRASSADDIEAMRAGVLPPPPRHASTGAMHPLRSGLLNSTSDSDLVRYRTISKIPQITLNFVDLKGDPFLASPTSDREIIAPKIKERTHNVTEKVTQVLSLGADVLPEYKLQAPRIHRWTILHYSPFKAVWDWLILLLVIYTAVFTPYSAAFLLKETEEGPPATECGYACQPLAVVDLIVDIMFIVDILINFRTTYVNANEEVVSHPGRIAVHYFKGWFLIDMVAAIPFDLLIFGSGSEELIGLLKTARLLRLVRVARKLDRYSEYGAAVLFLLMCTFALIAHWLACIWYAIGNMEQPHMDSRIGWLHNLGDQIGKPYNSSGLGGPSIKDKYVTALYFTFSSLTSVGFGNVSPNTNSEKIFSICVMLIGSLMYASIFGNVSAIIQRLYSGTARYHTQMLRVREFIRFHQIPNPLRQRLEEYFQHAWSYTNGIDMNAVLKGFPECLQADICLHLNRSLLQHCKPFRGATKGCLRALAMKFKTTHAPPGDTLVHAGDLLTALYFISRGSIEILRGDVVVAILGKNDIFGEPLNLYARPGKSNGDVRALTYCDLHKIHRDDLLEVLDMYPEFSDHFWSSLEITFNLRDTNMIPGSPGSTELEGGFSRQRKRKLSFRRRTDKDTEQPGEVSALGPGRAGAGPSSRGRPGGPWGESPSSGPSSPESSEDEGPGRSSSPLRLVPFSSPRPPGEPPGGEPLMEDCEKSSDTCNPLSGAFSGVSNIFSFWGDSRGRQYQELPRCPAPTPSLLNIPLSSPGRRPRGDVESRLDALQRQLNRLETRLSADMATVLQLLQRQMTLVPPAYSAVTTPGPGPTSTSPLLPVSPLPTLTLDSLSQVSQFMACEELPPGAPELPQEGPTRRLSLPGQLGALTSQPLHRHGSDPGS

Glycine receptor = Glycine receptor (Rattus norvegicus, UniProt P22771+P24524+P07727+P20781); type: cell membranes, Wistar, Spinal cord, Membrane; also: in other assays of this panel Not Active means under 50% inhibition at 10 µM
Acetylcholinesterase = Acetylcholinesterase (Homo sapiens, UniProt P22303); test: DRUGMATRIX: Acetylcholinesterase enzyme inhibition (substrate: acetylthiocholine); type: cell-based, HEK293; settings: hek293; Not Active = under 50% inhibition at 10 µM
Sequence of Acetylcholinesterase (P22303 whole entry): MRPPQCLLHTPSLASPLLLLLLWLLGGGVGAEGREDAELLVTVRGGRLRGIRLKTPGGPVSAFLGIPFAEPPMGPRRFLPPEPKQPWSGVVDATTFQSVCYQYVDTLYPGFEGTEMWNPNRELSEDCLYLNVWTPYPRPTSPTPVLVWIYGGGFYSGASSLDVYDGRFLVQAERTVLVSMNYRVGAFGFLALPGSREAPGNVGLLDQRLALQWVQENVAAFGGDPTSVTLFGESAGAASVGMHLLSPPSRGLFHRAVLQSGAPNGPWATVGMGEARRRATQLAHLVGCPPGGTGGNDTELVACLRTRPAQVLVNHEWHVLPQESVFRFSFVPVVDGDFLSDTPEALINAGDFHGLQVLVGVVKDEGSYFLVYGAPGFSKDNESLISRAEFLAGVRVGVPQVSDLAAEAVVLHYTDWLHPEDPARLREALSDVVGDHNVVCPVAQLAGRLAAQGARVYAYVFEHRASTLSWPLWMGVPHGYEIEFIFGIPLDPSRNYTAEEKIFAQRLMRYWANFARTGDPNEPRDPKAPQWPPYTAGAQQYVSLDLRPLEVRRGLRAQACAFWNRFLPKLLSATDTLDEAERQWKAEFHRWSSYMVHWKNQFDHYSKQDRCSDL

[2] = DRUGMATRIX: Glutamate, NMDA, Agonism radioligand binding (ligand: [3H] CGP-39653); type: cell membranes, Rattus norvegicus, Wistar, Cerebral cortex, Membrane; settings: Not Active = under 50% inhibition at 10 µM
Melanocortin receptor 5 = Melanocortin receptor 5 (Homo sapiens, UniProt P33032); type: cell membranes, HEK293, Membrane; settings: hek293; also: in other assays of this panel Not Active means under 50% inhibition at 10 µM
Sequence of Melanocortin receptor 5 (P33032 whole entry): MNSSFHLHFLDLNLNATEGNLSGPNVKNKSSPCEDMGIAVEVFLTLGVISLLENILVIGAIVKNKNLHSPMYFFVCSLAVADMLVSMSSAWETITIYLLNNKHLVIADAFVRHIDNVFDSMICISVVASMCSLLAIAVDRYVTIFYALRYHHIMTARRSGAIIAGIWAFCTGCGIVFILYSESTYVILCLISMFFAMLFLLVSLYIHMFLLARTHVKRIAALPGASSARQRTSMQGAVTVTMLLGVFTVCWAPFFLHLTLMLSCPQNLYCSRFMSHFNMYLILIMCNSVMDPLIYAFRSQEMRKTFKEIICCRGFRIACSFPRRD

[3] = target: Protein phosphatase 3 catalytic subunit alpha (Homo sapiens, UniProt Q08209); design: species or system Escherichia coli
[4] = DRUGMATRIX: Platelet-Derived Growth Factor (PDGF) radioligand binding (ligand: [125I] PDGF); type: cell-based; settings: nih3t3; Not Active = under 50% inhibition at 10 µM

C1CCC(C(CC2CCCCN2)C2CCCCC2)CC1 (centres undefined) [PERHEXILINE]
Not Active: IC50 (Leukotriene C4 synthase) | IC50 [1] | Ki [1] | IC50 (Glycine receptor) | IC50 (Acetylcholinesterase) | IC50 [2] | Ki [2] | IC50 (Melanocortin receptor 5) | IC50 [3] | IC50 [4] | Ki [4]

c1ccc2c(c1)c1cccc3ccc4cccc2c4c31 [BENZO[E]PYRENE]
Not Active: IC50 (Leukotriene C4 synthase) | IC50 [1] | Ki [1] | IC50 (Glycine receptor) | IC50 (Acetylcholinesterase) | IC50 [2] | Ki [2] | IC50 (Melanocortin receptor 5) | IC50 [3] | IC50 [4] | Ki [4]

C[C@]12CC[C@@H]3c4ccc(O)cc4CC[C@H]3[C@@H]1CCC2=O [ESTRONE]
Not Active: IC50 (Leukotriene C4 synthase) | IC50 [1] | Ki [1] | IC50 (Glycine receptor) | IC50 (Acetylcholinesterase) | IC50 [2] | Ki [2] | IC50 (Melanocortin receptor 5) | IC50 [3] | IC50 [4] | Ki [4]

CNCCc1ccccn1 [BETAHISTINE]
Not Active: IC50 (Leukotriene C4 synthase) | IC50 [1] | Ki [1] | IC50 (Glycine receptor) | IC50 (Acetylcholinesterase) | IC50 [2] | Ki [2] | IC50 (Melanocortin receptor 5) | IC50 [3] | IC50 [4] | Ki [4]

Cc1ccccc1N1C(=O)c2cc(S(N)(=O)=O)c(Cl)cc2NC1C (centres undefined) [METOLAZONE]
Not Active: IC50 (Leukotriene C4 synthase) | IC50 [1] | Ki [1] | IC50 (Glycine receptor) | IC50 (Acetylcholinesterase) | IC50 [2] | Ki [2] | IC50 (Melanocortin receptor 5) | IC50 [3] | IC50 [4] | Ki [4]

O=C1CC[C@@H](N2C(=O)c3ccccc3C2=O)C(=O)N1
Not Active: IC50 (Leukotriene C4 synthase) | IC50 [1] | Ki [1] | IC50 (Glycine receptor) | IC50 (Acetylcholinesterase) | IC50 [2] | Ki [2] | IC50 (Melanocortin receptor 5) | IC50 [3] | IC50 [4] | Ki [4]

Nc1c(Br)cc(Br)cc1CN[C@H]1CC[C@H](O)CC1 [AMBROXOL]
Not Active: IC50 (Leukotriene C4 synthase) | IC50 [1] | Ki [1] | IC50 (Glycine receptor) | IC50 (Acetylcholinesterase) | IC50 [2] | Ki [2] | IC50 (Melanocortin receptor 5) | IC50 [3] | IC50 [4] | Ki [4]

CN(C)CCCN1c2ccccc2Sc2ccccc21 [PROMAZINE]
Not Active: IC50 (Leukotriene C4 synthase) | IC50 [1] | Ki [1] | IC50 (Glycine receptor) | IC50 (Acetylcholinesterase) | IC50 [2] | Ki [2] | IC50 (Melanocortin receptor 5) | IC50 [3] | IC50 [4] | Ki [4]

CC1(C)O[C@@H]2C[C@H]3[C@@H]4CCC5=CC(=O)CC[C@]5(C)[C@@]4(F)[C@@H](O)C[C@]3(C)[C@]2(C(=O)CCl)O1 [HALCINONIDE]
Not Active: IC50 (Leukotriene C4 synthase) | IC50 [1] | Ki [1] | IC50 (Glycine receptor) | IC50 (Acetylcholinesterase) | IC50 [2] | Ki [2] | IC50 (Melanocortin receptor 5) | IC50 [3] | IC50 [4] | Ki [4]

CC1CC(OC(=O)C(O)c2ccccc2)CC(C)(C)C1 (centres undefined) [CYCLANDELATE]
Not Active: IC50 (Leukotriene C4 synthase) | IC50 [1] | Ki [1] | IC50 (Glycine receptor) | IC50 (Acetylcholinesterase) | IC50 [2] | Ki [2] | IC50 (Melanocortin receptor 5) | IC50 [3] | IC50 [4] | Ki [4]

LEAD (II) ACETATE
Not Active: IC50 (Leukotriene C4 synthase) | Ki (Leukotriene C4 synthase) | IC50 [1] | Ki [1] | IC50 (Glycine receptor) | Ki (Glycine receptor) | IC50 (Acetylcholinesterase) | Ki (Acetylcholinesterase) | IC50 [2] | Ki [2] | IC50 (Melanocortin receptor 5) | Ki (Melanocortin receptor 5) | IC50 [3] | Ki [3] | IC50 [4] | Ki [4]

Sc1ncnc2nc[nH]c12 [MERCAPTOPURINE ANHYDROUS]
Not Active: IC50 (Leukotriene C4 synthase) | IC50 [1] | Ki [1] | IC50 (Glycine receptor) | IC50 (Acetylcholinesterase) | IC50 [2] | Ki [2] | IC50 (Melanocortin receptor 5) | IC50 [3] | IC50 [4] | Ki [4]

O=c1[nH]c(=O)n([C@H]2C[C@H](O)[C@@H](CO)O2)cc1I [IDOXURIDINE]
Not Active: IC50 (Leukotriene C4 synthase) | IC50 [1] | Ki [1] | IC50 (Glycine receptor) | IC50 (Acetylcholinesterase) | IC50 [2] | Ki [2] | IC50 (Melanocortin receptor 5) | IC50 [3] | IC50 [4] | Ki [4]

CC1(C)S[C@@H]2[C@H](NC(=O)Cc3ccccc3)C(=O)N2[C@H]1C(=O)O [PENICILLIN G]
Not Active: IC50 (Leukotriene C4 synthase) | IC50 [1] | Ki [1] | IC50 (Glycine receptor) | IC50 (Acetylcholinesterase) | IC50 [2] | Ki [2] | IC50 (Melanocortin receptor 5) | IC50 [3] | IC50 [4] | Ki [4]

CC1=C2C(=CO[C@H](C)[C@H]2C)C(O)=C(C(=O)O)C1=O [CITRININ]
Not Active: IC50 (Leukotriene C4 synthase) | IC50 [1] | Ki [1] | IC50 (Glycine receptor) | IC50 (Acetylcholinesterase) | IC50 [2] | Ki [2] | IC50 (Melanocortin receptor 5) | IC50 [3] | IC50 [4] | Ki [4]

Cc1c(C)c2c(c(C)c1O)CC[C@@](C)(CCC[C@H](C)CCC[C@H](C)CCCC(C)C)O2 [ALPHA-TOCOPHEROL]
Not Active: IC50 (Leukotriene C4 synthase) | IC50 [1] | Ki [1] | IC50 (Glycine receptor) | IC50 (Acetylcholinesterase) | IC50 [2] | Ki [2] | IC50 (Melanocortin receptor 5) | IC50 [3] | IC50 [4] | Ki [4]

O=C(O)CCCc1ccc(N(CCCl)CCCl)cc1 [CHLORAMBUCIL]
Not Active: IC50 (Leukotriene C4 synthase) | IC50 [1] | Ki [1] | IC50 (Glycine receptor) | IC50 (Acetylcholinesterase) | IC50 [2] | Ki [2] | IC50 (Melanocortin receptor 5) | IC50 [3] | IC50 [4] | Ki [4]

CC[C@@]1(O)C[C@H](O[C@H]2C[C@H](N(C)C)[C@H](O[C@H]3C[C@H](O)[C@H](O[C@H]4CCC(=O)[C@H](C)O4)[C@H](C)O3)[C@H](C)O2)c2c(cc3c(c2O)C(=O)c2c(O)cccc2C3=O)[C@H]1C(=O)OC [ACLARUBICIN]
Not Active: IC50 (Leukotriene C4 synthase) | IC50 [1] | Ki [1] | IC50 (Glycine receptor) | IC50 (Acetylcholinesterase) | IC50 [2] | Ki [2] | IC50 (Melanocortin receptor 5) | IC50 [3] | IC50 [4] | Ki [4]

CC(=O)O[C@@]12CO[C@@H]1C[C@H](O)[C@@]1(C)C(=O)[C@H](O)C3=C(C)[C@@H](OC(=O)[C@H](O)[C@@H](NC(=O)OC(C)(C)C)c4ccccc4)C[C@@](O)([C@@H](OC(=O)c4ccccc4)[C@H]21)C3(C)C.O.O.O [DOCETAXEL]
Not Active: IC50 (Leukotriene C4 synthase) | IC50 [1] | Ki [1] | IC50 (Glycine receptor) | IC50 (Acetylcholinesterase) | IC50 [2] | Ki [2] | IC50 (Melanocortin receptor 5) | IC50 [3] | IC50 [4] | Ki [4]
